PMC12664080, “Tetrazole-containing naphthalene bis-sulfonamide Keap1-Nrf2 interaction inhibitors with unexpected binding modes” (Redox Biology, 2025)
pKd: −log10 of the molar value. “And” between values parts separate entries of the source, which are not always exact repeats. Equal entries are not always repeated. Where two headings read alike, the source gives them in different places.

Assays:
Keap1-mCherry = test: Keap1-Glow Cellular Thermal Shift Assay (CETSA), U2OS cell lysates; type: cell-based; details: 10 μM, 1 h at 37 °C
Procedure: U2OS FRT/TO cells with doxycycline-inducible expression of Keap1-mCherry or mCherry were treated with 0.5 μg/mL of doxycycline for 72–96 h to induce the expression of the fluorescent proteins. Lysates of U2OS cells with doxycycline-inducible expression of Keap1-mCherry or mCherry were prepared by lysing in DPBS with EDTA-free protease inhibitor cocktail (PIC) using at least 22 strokes of the Dounce homogenizer. The lysates were cleared by centrifugation at 9600×g for 5 min at 22 °C and incubated with 10 μM compound 25 or vehicle (0.4 % DMSO) for 1 h at 37 °C [46]. The lysates were then heated for 3 min at the indicated range of temperatures (39 °C–72 °C, with 3 °C increments) using a thermal cycler, and the aggregated material was removed by a high-speed centrifugation at 17,000×g at 4 °C for 40 min or 15,000×g at 4 °C for 1 h. The soluble fractions were transferred to 96-well white opaque plates, and the fluorescence (580 nm excitation wavelength (20 nm excitation bandwidth), 635 nm emission wavelength (35 nm emission bandwidth)) was measured using a plate reader (TECAN Spark 10 M).

Keap1 Kelch domain = biological target: T1, Keap1 Kelch domain (Homo sapiens, UniProt Q14145); test: Isothermal titration calorimetry (ITC); type: binding
T1 construct: made in house
T1 sequence (Q14145 322-609): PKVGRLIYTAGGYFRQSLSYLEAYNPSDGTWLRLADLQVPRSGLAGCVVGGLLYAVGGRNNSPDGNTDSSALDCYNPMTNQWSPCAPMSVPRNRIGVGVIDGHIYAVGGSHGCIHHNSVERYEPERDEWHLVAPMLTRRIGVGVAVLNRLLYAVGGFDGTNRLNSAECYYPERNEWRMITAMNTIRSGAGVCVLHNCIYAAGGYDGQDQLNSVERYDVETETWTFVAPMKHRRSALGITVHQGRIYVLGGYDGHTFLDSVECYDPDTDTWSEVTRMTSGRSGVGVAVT
Procedure: The measurements were performed as described previously. The small molecule inhibitor at 500 μM was titrated over 30 injections against 50 μM protein in buffer containing 25 mM HEPES (pH 7.4), 200 mM NaCl and 5 % DMSO. ITC experiments were performed using a MicroCal PEAQ-ITC instrument (Malvern Instruments, UK) at 25 °C with a stirring speed of 750 rpm. The first injection volume was of 0.3 μL followed by 29 injections of 1.3 μL and a gap of 120 s between each injection. Data analyses were performed as previously described. Each small molecule ITC measurement was performed in duplicate and resultant values obtained were averaged after independent analysis.

[1] = 1D 1H NMR lineshape analysis of cis/trans rotamer exchange
Procedure: Exchange was quantified using a two-site exchange model [40] implemented in Julia, where resonances were fitted to calculate chemical shifts of the two states and the exchange rates kAB and kBA between them. […] Reported uncertainties were determined from the standard errors of the fits.
Exchange rates kAB and kBA were used to determine the relative populations pA=kBA/kAB+kBA and pB=kAB/kAB+kBA and were fitted to van't Hoff and Eyring equations (with unit transmission coefficient) to estimate the enthalpy and entropy changes and enthalpy and entropy of activation.

Nrf2 = test: Immunoblotting of Nrf2 and HO-1 in Hepa1c1c7 cells; type: cell-based, mouse; details: 6-h incubation, 10 μM or 50 μM
Procedure: Hepa1c1c7 cells (5 × 10^5 cells/well, n = 3) were seeded on six-well plates, and on the next day were treated with compound 25 (10 μM or 50 μM) or vehicle (0.1 % DMSO) for 6 h. Cells were washed twice in PBS, and lysed in 200 μL of SDS lysis buffer containing 2 % SDS, 62.5 mM Tris-HCl pH 6.8 and 10 % glycerol. The cell lysates were boiled for 3 min, sonicated for 25 s (25 %, 4 s on, 1 s off), supplemented with DTT up to 0.1 M and Bromophenol Blue, and snap-frozen. The lysates were thawed, and 20 μg of total protein was separated on a pre-cast NuPage gel under MOPS buffer, transferred onto nitrocellulose membrane and blotted with anti-Nrf2 (Cell Signaling Technology, clone D1Z9C, 1:1000 dilution), anti-HO1 (Abcam, ab13243, 1:2000 dilution) or anti-alpha tubulin (Abcam, clone EP1332Y, 1:5000 dilution) in 5 % milk in PBS with 0.1 % Tween, followed by appropriate secondary antibodies (LiCor BioSciences, 1:15000 dilutuon) and scanned using Odyssey CLx Imaging System.

[2] = D2O PBS buffer, pH* ~7.4, lineshape

Structure (SMILES): COc1ccc(S(=O)(=O)N(CC(=O)O)c2ccc(N(Cc3nnn[nH]3)S(=O)(=O)c3ccc(OC)cc3)c3ccccc23)cc1 [Compound 25, N-(4-((N-((1H-tetrazol-5-yl)methyl)-4-methoxyphenyl)sulfonamido)naphthalen-1-yl)-N-((4-methoxyphenyl)sulfonyl)glycine]
- Target engagement in the cellular environment (CETSA) (Keap1-mCherry): confirmed
- pKd (Keap1 Kelch domain; 25 °C, read-out: ITC Kd): > 9.00
- pKd (Keap1 Kelch domain; from ITC and MST data, read-out: Kd value for Keap1 Kelch domain (overall, lower limit of detection)): ≥ 9.00
- Occupancy of the more shielded state (A) ([1]; D2O PBS buffer (pH* ~7.4), 300 K): 0.606 ±0.003
- Occupancy of the more shielded state (A) ([1]; D2O PBS buffer (pH* ~7.4), 310 K): 0.586 ±0.001
- Occupancy of the more shielded state (A) ([1]; D2O PBS buffer (pH* ~7.4), 320 K): 0.567 ±0.001
- kA→B ([1]; D2O PBS buffer, 300 K, lineshape): 1.432 s^-1 and 1.432 ±0.015^c s^-1
- kA→B ([1]; D2O PBS buffer, 310 K, lineshape): 3.488 ±0.014^c s^-1
- kA→B ([1]; D2O PBS buffer, 320 K, lineshape): 8.912 ±0.024^c s^-1
- ΔHAB [1, 2]: 6.532 ± 0.022 kJ/mol
- ΔH^‡AB [1, 2]: 73.0 ± 2.3 kJ/mol
- ΔSAB [1, 2]: 18.19 ± 0.07
- ΔS^‡AB [1, 2]: 0.65 ± 7.2
- Occupancy of the more shielded state (A) ([1]; DMSO, 300 K): 0.486 ±0.003
- kA→B ([1]; DMSO, 300 K, lineshape): 3.059 ± 0.029 s⁻¹
- Occupancy of the more shielded state (A) ([1]; DMSO, 310 K): 0.491 ±0.001
- kA→B ([1]; DMSO, 310 K, lineshape): 3.982 ± 0.007 s⁻¹
- Occupancy of the more shielded state (A) ([1]; DMSO, 320 K): 0.496 ±0.0005
- kA→B ([1]; DMSO, 320 K, lineshape): 8.749 ± 0.012 s⁻¹
- ΔH^‡AB ([1]; DMSO, lineshape, Eyring): 48.0 ± 13.0 kJ/mol
- ΔS^‡AB ([1]; DMSO, lineshape, Eyring): -79 ± 41
- ΔSAB ([1]; DMSO, lineshape, van't Hoff): -5.26 ± 0.17
- protein levels of Nrf2 (Nrf2): increased
- protein levels of heme oxygenase 1 (HO-1) (Nrf2): increased
